Results on four compounds are retold here after PubChem BioAssay AID1963837 (Molecular Pharmacology Branch, DTP, NCI, 2024).

For the test, the system named is 843126-344-R-J1-PDC complex spheroid viability. Briefly: Anticancer human tumor 843126-344-R-J1-PDC patient-derived melanoma cell line growth inhibition [POLQ]. Particulars: for viability, T/C: stronger effect = lower value. The protocol:
Multicellular complex tumor spheroid response to Polymerase (POL) inhibitors (novobiocin, ART-558, RP6685) in combination with a variety of drugs and investigational agents in selected tumor cell lines
The POL inhibitors (novobiocin, ART-558, and RP6685) were evaluated both individually and in combination with standard of care and investigational anticancer small molecules within a complex spheroid model of solid tumors. . Complex spheroids include a stromal component modeled by human endothelial cells (HUVEC) and fibroblasts modeled by human mesenchymal stem cells (MSCs). The concentration ranges selected for each drug and investigational agent were based upon clinically achievable concentrations if the clinical Cmax of the agent was known.
Compounds. The drugs and investigational agents: novobiocin (NSC847541), ART-558 (NSC835418), RP-6685 (NSC848927), peposertib (NSC802822), ceralasertib (NSC780249), elimusertib (NSC800525), camonsertib (NSC841442), AZD-1390 (NSC803789), olaparib (NSC753686), talazoparib (NSC767125), rucaparib (NSC756644), sotorasib (NSC818433), MRTX-1133 (NSC836407), SN-38 (NSC673596), topotecan (NSC609699), epotoside (NSC141540), doxorubicin (NSC123127), gemcitabine (NSC613327), 5-fluorouracil (NSC19893), paclitaxel (NSC125973), vemurafenib (NSC761431), MSA-2 (NSC828583), SN-011 (NSC837082), adavosertib (NSC754352), prexasertib (NSC758257), carboplatin (NSC241240) and oxaliplatin (NSC266046), were obtained from the National Cancer Institute (NCI) Developmental Therapeutics Program Chemical Repository (21). The FDA-approved anticancer drug set is available from the Developmental Therapeutics Program at https://dtp.cancer.gov/organization/dscb/obtaining/. […] The stock solutions were prepared in dimethyl sulfoxide (DMSO, Sigma-Aldrich, St. Louis, MO, cat. D2650), except for the platinum compounds which were prepared in saline (Quality Biological, Gaithersburg, MD, cat. 114-055-101), at 800-fold the tested concentration and stored at -70 degrees C prior to their use. All drugs and investigational agents were tested over a range starting from a high concentration at or near the clinical Cmax and decreasing in half-log increments. If the clinical Cmax for an agent had not been determined, the highest concentration tested was 10 microM, except for SN-38, which was tested at a high concentration of 1 microM.
Cell Culture. All cells were maintained in an incubator at 37 degrees C and 5% CO2 with 95% humidity. The PDC lines were cultured according to standard operating procedures established by the NCI PDMR (https://pdmr.cancer.gov). Table 3 of the manuscript, lists the cell lines along with the number of the three cell types plated to form the mct-spheroids and media for tumor cell growth. After thawing, all PDC lines, except 997537-175-T-J1-PDC and 415267-285-R-J2-PDC, were cultured in Matrigel-coated flasks prepared with a working solution of 1X Ham's F-12 nutrient mix, without supplementation (Thermo Fisher Scientific, cat. 11765054), 100 U/mL penicillin-streptomycin (Thermo Fisher Scientific, cat. 15140122), and 2.5% Matrigel (Corning Inc., Corning, NY, cat. 354248) for the first three passages. The two PDC lines 997537-175-T-J1-PDC and 415267-285-R-J2-PDC were cultured on uncoated flasks. The 857933-349-R-J2-PDC line was cultured in 6C/Colon 1B media containing advanced DMEM/F-12 (Thermo Fisher Scientific, cat. 12634028), 10 mM HEPES (Thermo Fisher Scientific, cat. 15630080), 1X GlutaMAX supplement (Thermo Fisher Scientific, cat. 35050061), 0.1 mg/mL primocin (InvivoGen, San Diego, CA, cat. ant-pm-2), 10% defined fetal bovine serum, heat inactivated (HyClone Laboratories Inc., Logan, UT, cat. SH30070.03HI), 50% L-WRN conditioned media (ATCC, cat. CRL-3276), 1.25 mM N-Acetyl-L-cysteine (Sigma-Aldrich, cat. A9165), 10 mM nicotinamide (Sigma-Aldrich, cat. N0636), 1X B-27 supplement (Thermo Fisher Scientific, cat. 17504044), 1X N-2 supplement (Thermo Fisher Scientific, cat. […]

Several values for one entry are separate records, joined by “and”; a condition that tells them apart may be missing. Equal values may be shown once. Some results are limits rather than exact numbers.
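For viability, T/C in this document: spheroids exposed to drugs for seven days before readout.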

In general, viability, T/C refers to the result in the treated group divided by that in the control group, in per cent. Usually IC50 stands for the concentration that inhibits the measured activity by half. As for `C=CC(=O)N1CCN(c2nc(=O)n(-c3c(C)ccnc3C(C)C)c3nc(-c4c(O)cccc4F)c(F)cc23)C(C)C1` (stereo not drawn), the viability, T/C is 96.7% and 98.3% and 89.5% (compound 0.0316 µM); 85.1% and 110% and 73.2% (compound 0.1 µM); 104% and 107% and 95.8% (compound 0.316 µM); 104% and 85.4% and 106% (compound 1 µM); 92.8% and 96.1% and 113% (compound 3.16 µM); 67.2% and 91% and 79.3% (compound 10 µM). In addition, the IC50 (curve of compound) was more than 10 µM.

Take `COc1ccc([C@@H](O)c2cc(-c3ncnc4cc(N5CCOCC5)ccc34)c(F)cc2Cl)nn1` + Cc1cccc(N(C)C(=O)C2C(O)CCN2c2nc(C)cc(C(F)(F)F)c2C#N)c1: the 50% inhibitory concentration (IC50) reads like this: (curve of first compound, second compound 0.0316 µM) more than 10 µM; (curve of first compound, second compound 0.1 µM) more than 10 µM; (curve of first compound, second compound 0.316 µM) more than 10 µM; (curve of first compound, second compound 1 µM) more than 10 µM; (curve of first compound, second compound 3.16 µM) more than 10 µM; (curve of first compound, second compound 10 µM) more than 10 µM. Moreover, the viability, T/C was 95.1% (second compound 0.0316 µM, first compound 0.0316 µM); 76.6% (second compound 0.0316 µM, first compound 0.1 µM); 93.3% (second compound 0.0316 µM, first compound 0.316 µM); 96.9% (second compound 0.0316 µM, first compound 1 µM); 81% (second compound 0.0316 µM, first compound 3.16 µM); 63.5% (second compound 0.0316 µM, first compound 10 µM). In addition, the viability, T/C is 85.2% (second compound 0.1 µM, first compound 0.0316 µM); 92.7% (second compound 0.1 µM, first compound 0.1 µM); 86.4% (second compound 0.1 µM, first compound 0.316 µM); 99.2% (second compound 0.1 µM, first compound 1 µM); 93.2% (second compound 0.1 µM, first compound 3.16 µM); 63.3% (second compound 0.1 µM, first compound 10 µM). For the same compound, the viability, T/C is, setting by setting: (second compound 0.316 µM, first compound 0.0316 µM) 103%; (second compound 0.316 µM, first compound 0.1 µM) 102%; (second compound 0.316 µM, first compound 0.316 µM) 92.2%; (second compound 0.316 µM, first compound 1 µM) 102%; (second compound 0.316 µM, first compound 3.16 µM) 76.9%; (second compound 0.316 µM, first compound 10 µM) 80.9%. Further, the viability, T/C was 79.2% (second compound 1 µM, first compound 0.0316 µM); 101% (second compound 1 µM, first compound 0.1 µM); 69.6% (second compound 1 µM, first compound 0.316 µM); 86.6% (second compound 1 µM, first compound 1 µM); 79.8% (second compound 1 µM, first compound 3.16 µM); 68.1% (second compound 1 µM, first compound 10 µM). Moreover, the viability, T/C runs as follows: (second compound 3.16 µM, first compound 0.0316 µM) 81.2%; (second compound 3.16 µM, first compound 0.1 µM) 89.1%; (second compound 3.16 µM, first compound 0.316 µM) 92.7%; (second compound 3.16 µM, first compound 1 µM) 81.9%; (second compound 3.16 µM, first compound 3.16 µM) 97.4%; (second compound 3.16 µM, first compound 10 µM) 65.6%. Moreover, the viability, T/C (second compound 10 µM, first compound 0.0316 µM) is 74.1%; the viability, T/C (second compound 10 µM, first compound 0.1 µM) is 83.5%; the viability, T/C (second compound 10 µM, first compound 0.316 µM) is 70.2%; the viability, T/C (second compound 10 µM, first compound 1 µM) is 66%; the viability, T/C (second compound 10 µM, first compound 3.16 µM) was 77.4%; the viability, T/C (second compound 10 µM, first compound 10 µM) was 64.1%.

As for `O=C(c1cc(Cc2n[nH]c(=O)c3ccccc23)ccc1F)N1CCN(C(=O)C2CC2)CC1`, the viability, T/C was 91.6% and 93.9% and 74.9% (compound 0.0316 µM); 78.7% and 90% and 91.5% (compound 0.1 µM); 103% and 77.3% and 93.6% (compound 0.316 µM); 74.1% and 76.7% and 83% (compound 1 µM); 86.2% and 79.5% and 87.6% (compound 3.16 µM); 81% and 72.1% and 82.1% (compound 10 µM). Further, the 50% inhibitory concentration (IC50) (curve of compound) is more than 10 µM.

Regarding `CCc1c2c(nc3ccc(O)cc13)-c1cc3c(c(=O)n1C2)COC(=O)[C@]3(O)CC`, the viability, T/C reads like this: (compound 0.00316 µM) 62.8% and 69.6% and 70%; (compound 0.01 µM) 52.5% and 56.2% and 54.6%; (compound 0.0316 µM) 61.5% and 68% and 63%; (compound 0.1 µM) 71.1% and 62.4% and 61.4%; (compound 0.316 µM) 57% and 64% and 62.5%; (compound 1 µM) 53.9% and 45.5% and 50.1%. The half-inhibitory concentration (IC50) (curve of compound) is more than 1 µM.
